Source: PubChem BioAssay (NCI)
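Briefly, cells in 96-well plates were exposed to five compound concentrations for 48 h, and endpoints were estimated by linear interpolation. TGI: total growth inhibition.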

Experiments:
Assay in all cases: growth of human tumour cells (NCI), 48 h
HCT-116 colon = test system: HCT-116 colon
SK-OV-3 ovarian = test system: SK-OV-3 ovarian
UO-31 renal = test system: UO-31 renal
HOP-62 NSCLC = test system: HOP-62 NSCLC
KM20L2 colon = test system: KM20L2 colon
HL-60(TB) leukemia = test system: HL-60(TB) leukemia
SR leukemia = test system: SR leukemia
SNB-75 CNS = test system: SNB-75 CNS
ACHN renal = test system: ACHN renal
K-562 leukemia = test system: K-562 leukemia
COLO 205 colon = test system: COLO 205 colon
TK-10 renal = test system: TK-10 renal
HCC-2998 colon = test system: HCC-2998 colon
CAKI-1 renal = test system: CAKI-1 renal
OVCAR-8 ovarian = test system: OVCAR-8 ovarian
SK-MEL-28 melanoma = test system: SK-MEL-28 melanoma
MALME-3M melanoma = test system: MALME-3M melanoma
A549 NSCLC = test system: A549 NSCLC
NCI-H460 lung = test system: NCI-H460 lung
UACC-257 melanoma = test system: UACC-257 melanoma
OVCAR-4 ovarian = test system: OVCAR-4 ovarian
DMS 273 small cell lung = test system: DMS 273 small cell lung
DLD-1 colon = test system: DLD-1 colon
786-0 renal = test system: 786-0 renal
DMS 114 small cell lung = test system: DMS 114 small cell lung
RXF 393 renal = test system: RXF 393 renal
SNB-78 CNS = test system: SNB-78 CNS
SNB-19 CNS = test system: SNB-19 CNS
CCRF-CEM leukemia = test system: CCRF-CEM leukemia
MOLT-4 leukemia = test system: MOLT-4 leukemia
HT29 colon = test system: HT29 colon
KM12 colon = test system: KM12 colon
EKVX NSCLC = test system: EKVX NSCLC
OVCAR-5 ovarian = test system: OVCAR-5 ovarian
UACC-62 melanoma = test system: UACC-62 melanoma
SF-539 CNS = test system: SF-539 CNS
M14 melanoma = test system: M14 melanoma
SF-268 CNS = test system: SF-268 CNS
U251 CNS = test system: U251 CNS
XF 498 CNS = test system: XF 498 CNS
SN12C renal = test system: SN12C renal
NCI-H522 lung = test system: NCI-H522 lung
NCI-H226 lung = test system: NCI-H226 lung
SF-295 CNS = test system: SF-295 CNS
NCI-H23 lung = test system: NCI-H23 lung
OVCAR-3 ovarian = test system: OVCAR-3 ovarian
LOX IMVI melanoma = test system: LOX IMVI melanoma
LXFL 529 NSCLC = test system: LXFL 529 NSCLC
M19-MEL melanoma = test system: M19-MEL melanoma
SK-MEL-5 melanoma = test system: SK-MEL-5 melanoma
HCT-15 colon = test system: HCT-15 colon
A498 renal = test system: A498 renal
SW-620 colon = test system: SW-620 colon
SK-MEL-2 melanoma = test system: SK-MEL-2 melanoma
RPMI-8226 leukemia = test system: RPMI-8226 leukemia
HOP-92 NSCLC = test system: HOP-92 NSCLC
IGROV1 ovarian = test system: IGROV1 ovarian

## Cn1cc/c(=N\N=c2/ccn(C)c3ccccc23)c2ccccc21
HCT-116 colon
  TGI: 23.4 µM
SK-OV-3 ovarian
  TGI: 31 µM
UO-31 renal
  TGI: 26.3 µM
HOP-62 NSCLC
  TGI: 31.6 µM
KM20L2 colon
  TGI: 28.2 µM
HL-60(TB) leukemia
  TGI: 21.6 µM
SR leukemia
  TGI: 47.3 µM
SNB-75 CNS
  TGI: 61.8 µM
ACHN renal
  TGI: 27 µM
K-562 leukemia
  TGI: 22.2 µM
COLO 205 colon
  TGI: 22.1 µM
TK-10 renal
  TGI: 36.4 µM
HCC-2998 colon
  TGI: 29.2 µM
CAKI-1 renal
  TGI: 33.2 µM
OVCAR-8 ovarian
  TGI: 28.5 µM
SK-MEL-28 melanoma
  TGI: 28.5 µM
MALME-3M melanoma
  TGI: 31 µM
A549 NSCLC
  TGI: 30.6 µM
NCI-H460 lung
  TGI: 25 µM
UACC-257 melanoma
  TGI: 27.3 µM
OVCAR-4 ovarian
  TGI: 25.5 µM
DMS 273 small cell lung
  TGI: 30 µM
DLD-1 colon
  TGI: 29.4 µM
786-0 renal
  TGI: 30.1 µM
DMS 114 small cell lung
  TGI: 27.7 µM
RXF 393 renal
  TGI: 27.5 µM
SNB-78 CNS
  TGI: 33.3 µM
SNB-19 CNS
  TGI: 36.3 µM
CCRF-CEM leukemia
  TGI: 24.5 µM
MOLT-4 leukemia
  TGI: 63.9 µM
HT29 colon
  TGI: 31.7 µM
KM12 colon
  TGI: 25.6 µM
EKVX NSCLC
  TGI: 27.8 µM
OVCAR-5 ovarian
  TGI: 30.3 µM
UACC-62 melanoma
  TGI: 29.8 µM
SF-539 CNS
  TGI: 29.4 µM
M14 melanoma
  TGI: 30.8 µM
SF-268 CNS
  TGI: 39.2 µM
U251 CNS
  TGI: 29.1 µM
XF 498 CNS
  TGI: 27.1 µM
SN12C renal
  TGI: 33 µM
NCI-H522 lung
  TGI: 27.8 µM
NCI-H226 lung
  TGI: 25.8 µM
SF-295 CNS
  TGI: 30.9 µM
NCI-H23 lung
  TGI: 27.4 µM
OVCAR-3 ovarian
  TGI: 24 µM
LOX IMVI melanoma
  TGI: 24.2 µM
LXFL 529 NSCLC
  TGI: 27.2 µM
M19-MEL melanoma
  TGI: 34.2 µM
SK-MEL-5 melanoma
  TGI: 29.4 µM
HCT-15 colon
  TGI: 29.2 µM
A498 renal
  TGI: 37.2 µM

## COc1ccccc1/C=C1\C(=O)N(C(=O)c2ccc(NC(C)=O)cc2)N=C1C
HCT-116 colon
  TGI: > 100 µM
UO-31 renal
  TGI: > 100 µM
SW-620 colon
  TGI: > 100 µM
HOP-62 NSCLC
  TGI: > 100 µM
HL-60(TB) leukemia
  TGI: > 100 µM
SR leukemia
  TGI: > 100 µM
SNB-75 CNS
  TGI: > 100 µM
ACHN renal
  TGI: > 100 µM
K-562 leukemia
  TGI: > 100 µM
COLO 205 colon
  TGI: > 100 µM
TK-10 renal
  TGI: > 100 µM
SK-MEL-2 melanoma
  TGI: > 100 µM
HCC-2998 colon
  TGI: > 100 µM
CAKI-1 renal
  TGI: > 100 µM
OVCAR-8 ovarian
  TGI: > 100 µM
SK-MEL-28 melanoma
  TGI: > 100 µM
MALME-3M melanoma
  TGI: > 100 µM
A549 NSCLC
  TGI: > 100 µM
NCI-H460 lung
  TGI: > 100 µM
UACC-257 melanoma
  TGI: > 100 µM
OVCAR-4 ovarian
  TGI: > 100 µM
DMS 273 small cell lung
  TGI: > 100 µM
DLD-1 colon
  TGI: > 100 µM
786-0 renal
  TGI: > 100 µM
DMS 114 small cell lung
  TGI: > 100 µM
SNB-78 CNS
  TGI: > 100 µM
SNB-19 CNS
  TGI: > 100 µM
CCRF-CEM leukemia
  TGI: > 100 µM
MOLT-4 leukemia
  TGI: > 100 µM
HT29 colon
  TGI: > 100 µM
KM12 colon
  TGI: > 100 µM
EKVX NSCLC
  TGI: > 100 µM
OVCAR-5 ovarian
  TGI: > 100 µM
SF-539 CNS
  TGI: > 100 µM
SF-268 CNS
  TGI: > 100 µM
U251 CNS
  TGI: > 100 µM
XF 498 CNS
  TGI: > 100 µM
SN12C renal
  TGI: > 100 µM
NCI-H522 lung
  TGI: > 100 µM
NCI-H226 lung
  TGI: > 100 µM
SF-295 CNS
  TGI: > 100 µM
RPMI-8226 leukemia
  TGI: > 100 µM
NCI-H23 lung
  TGI: > 100 µM
OVCAR-3 ovarian
  TGI: > 100 µM
LOX IMVI melanoma
  TGI: > 100 µM
M19-MEL melanoma
  TGI: > 100 µM
SK-MEL-5 melanoma
  TGI: > 100 µM
HCT-15 colon
  TGI: > 100 µM

## CCN(CC)c1ccc2cc3ccc(=[N+](CC)CC)cc-3oc2c1
HCT-116 colon
  TGI: 1.77 µM
SK-OV-3 ovarian
  TGI: 13.6 µM
UO-31 renal
  TGI: 8.52 µM
SW-620 colon
  TGI: 1.43 µM
HOP-62 NSCLC
  TGI: 13.7 µM
KM20L2 colon
  TGI: 12.1 µM
HL-60(TB) leukemia
  TGI: 0.532 µM
SR leukemia
  TGI: 1.52 µM
SNB-75 CNS
  TGI: 16.3 µM
ACHN renal
  TGI: 7.39 µM
K-562 leukemia
  TGI: > 100 µM
COLO 205 colon
  TGI: 2.05 µM
TK-10 renal
  TGI: 17.2 µM
SK-MEL-2 melanoma
  TGI: 2.99 µM
HCC-2998 colon
  TGI: 19 µM
CAKI-1 renal
  TGI: 18 µM
OVCAR-8 ovarian
  TGI: 1.84 µM
SK-MEL-28 melanoma
  TGI: 10.3 µM
MALME-3M melanoma
  TGI: 2.78 µM
A549 NSCLC
  TGI: 16.6 µM
NCI-H460 lung
  TGI: 6.62 µM
UACC-257 melanoma
  TGI: 10.4 µM
OVCAR-4 ovarian
  TGI: 26.1 µM
HOP-92 NSCLC
  TGI: 3.13 µM
DMS 273 small cell lung
  TGI: 2.49 µM
DLD-1 colon
  TGI: 14.5 µM
786-0 renal
  TGI: 7.73 µM
DMS 114 small cell lung
  TGI: 3.8 µM
RXF 393 renal
  TGI: 11.6 µM
SNB-78 CNS
  TGI: 11.1 µM
SNB-19 CNS
  TGI: 23.3 µM
CCRF-CEM leukemia
  TGI: 6.33 µM
MOLT-4 leukemia
  TGI: 2.09 µM
HT29 colon
  TGI: 4.48 µM
KM12 colon
  TGI: 1.92 µM
EKVX NSCLC
  TGI: 19.9 µM
OVCAR-5 ovarian
  TGI: 19.6 µM
UACC-62 melanoma
  TGI: 9.36 µM
SF-539 CNS
  TGI: 5.12 µM
M14 melanoma
  TGI: 6.03 µM
IGROV1 ovarian
  TGI: 8.36 µM
SF-268 CNS
  TGI: 2.75 µM
U251 CNS
  TGI: 2.02 µM
XF 498 CNS
  TGI: 7.99 µM
SN12C renal
  TGI: 2.33 µM
NCI-H522 lung
  TGI: 5.7 µM
NCI-H226 lung
  TGI: 15.4 µM
SF-295 CNS
  TGI: 16.3 µM
RPMI-8226 leukemia
  TGI: 3.16 µM
NCI-H23 lung
  TGI: 3.04 µM
OVCAR-3 ovarian
  TGI: 2.11 µM
LOX IMVI melanoma
  TGI: 1.98 µM
LXFL 529 NSCLC
  TGI: 1.79 µM
SK-MEL-5 melanoma
  TGI: 7.76 µM
HCT-15 colon
  TGI: 12.7 µM
A498 renal
  TGI: 29.8 µM
